The assay concerns the target T1, α5β2γ2 subtype GABAAR (Homo sapiens, UniProt P18507+P31644).
T1 construct: expressed in transfected cells
T1 sequence (P31644 32-462): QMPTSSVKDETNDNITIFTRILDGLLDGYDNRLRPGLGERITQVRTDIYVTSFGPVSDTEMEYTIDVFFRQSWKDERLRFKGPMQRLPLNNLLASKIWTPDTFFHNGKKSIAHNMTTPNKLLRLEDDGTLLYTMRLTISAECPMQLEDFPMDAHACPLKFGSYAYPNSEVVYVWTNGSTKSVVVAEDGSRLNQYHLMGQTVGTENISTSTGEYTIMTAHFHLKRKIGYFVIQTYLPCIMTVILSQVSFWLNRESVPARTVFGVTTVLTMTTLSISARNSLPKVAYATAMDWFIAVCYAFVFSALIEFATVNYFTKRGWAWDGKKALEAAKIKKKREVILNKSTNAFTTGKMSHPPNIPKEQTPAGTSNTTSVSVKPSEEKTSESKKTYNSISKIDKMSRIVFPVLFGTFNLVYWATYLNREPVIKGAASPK
T1 sequence (P47870 25-512 partner limits assumed): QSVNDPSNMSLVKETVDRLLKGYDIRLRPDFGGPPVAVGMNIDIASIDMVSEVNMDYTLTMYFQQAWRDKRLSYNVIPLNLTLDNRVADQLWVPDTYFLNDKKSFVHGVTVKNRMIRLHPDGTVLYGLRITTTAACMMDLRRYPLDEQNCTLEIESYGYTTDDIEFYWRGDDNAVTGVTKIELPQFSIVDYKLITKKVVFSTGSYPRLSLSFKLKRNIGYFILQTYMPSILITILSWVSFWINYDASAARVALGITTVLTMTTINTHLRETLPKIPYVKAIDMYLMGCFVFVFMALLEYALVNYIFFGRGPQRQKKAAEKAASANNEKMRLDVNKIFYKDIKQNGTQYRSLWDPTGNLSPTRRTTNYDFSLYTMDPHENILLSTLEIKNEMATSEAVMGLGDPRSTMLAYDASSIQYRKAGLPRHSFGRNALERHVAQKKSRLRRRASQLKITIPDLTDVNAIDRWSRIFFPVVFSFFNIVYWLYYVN
T1 sequence (P18507 40-467 limits assumed): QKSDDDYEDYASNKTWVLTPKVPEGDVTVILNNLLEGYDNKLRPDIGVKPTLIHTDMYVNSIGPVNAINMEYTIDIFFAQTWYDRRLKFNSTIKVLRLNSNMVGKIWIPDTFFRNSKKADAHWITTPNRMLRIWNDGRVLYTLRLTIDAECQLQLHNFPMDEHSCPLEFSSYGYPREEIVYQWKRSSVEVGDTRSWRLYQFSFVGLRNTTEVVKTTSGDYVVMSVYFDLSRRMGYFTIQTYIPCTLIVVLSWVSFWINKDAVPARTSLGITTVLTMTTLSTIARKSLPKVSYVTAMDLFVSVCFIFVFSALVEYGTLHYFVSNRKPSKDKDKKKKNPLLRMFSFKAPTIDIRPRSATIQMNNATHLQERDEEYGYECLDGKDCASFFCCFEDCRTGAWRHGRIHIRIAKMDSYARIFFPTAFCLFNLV
Kind of assay: Positive allosteric modulator activity: potentiation of EC20 GABA current in oocytes. Conditions: read-out: GABA α5 Functional Data (potentiation), @ 100 nM, reported as ranges. In kind it is cell-based. As to the method: (B) Positive Allosteric Modulator Activity of Test Compounds on α5β2γ2 Subtype GABAAR
On day 1, 1 ng/32 nL of GABAA α5β2γ2 cDNA was injected into one oocyte. Test starts on day 2. The cDNA injected to the oocytes was a mix of alpha, beta and gamma, their ratio is 1:1:10 (by weight) and the total weight of the mixed 3 subunits to be injected in one oocyte was 1 ng in 32 nl volume. The injected oocytes can also be tested on day 3. In such case, the cDNA amount injected to the oocytes should be reduced by 20%.
Compounds of the present invention were tested using the following procedures.
• 1). 8 oocytes were placed in 8 chambers of OpusXpress and superfused with Modified Barth's Saline (MBS) at 3 mL/min. Glass electrodes back-filled with 3M KCl (0.5-3 megaohms) were used.
Control test (Diazepam or methyl 3,5-diphenylpyridazine-4-carboxylate) • 1). New oocytes was used to run new test. • 2). […] Oocytes were washed with MBS for 5-10 min. • 4). […] Itest was divided by IGABA to obtain potentiation (%). Test Compounds at Multiple Doses • 1). Repeat the above steps 1), 2) and 3) in the control test. • 2). […] Divide Itest by IGABA to obtain potentiation (%). • 3). Discard all tested oocytes, new oocytes were used and the above steps 1) and 2) were repeated to test second concentration of the same compound. Each oocyte was used for only one concentration test for a single test compound. The steps were repeated for other test compounds.
Consider `COc1ccc2c(c1)-c1nnc(COCc3cccc(F)c3)n1Cc1c(-c3noc(C(C)C)n3)ncn1-2` [Compound 183], for which the activation at 0.1 µM lay within 20 to 50%.

`COc1ccc2c(c1)-c1nnc(COCc3ccccc3F)n1Cc1c(-c3noc(C(C)C)n3)ncn1-2` [Compound 184]: the activation at 0.1 µM lay in the range of 20 to 50%. Next, `CC(C)c1nc(-c2ncn3c2Cn2c(COc4cccnc4)nnc2-c2cc(F)ccc2-3)no1` [Compound 185]: greater than 50%; `COCc1nnc2n1Cc1c(-c3noc(C(C)C)n3)ncn1-c1ccc(F)cc1-2` [Compound 186]: greater than 50%. Take `CCOCc1nnc2n1Cc1c(-c3noc(C(C)C)n3)ncn1-c1ccc(F)cc1-2` [Compound 187]: the activation at 0.1 µM was 20 to 50%.

Turning to `CC(C)c1nc(-c2ncn3c2Cn2c(COc4cccc(F)c4)nnc2-c2cc(F)ccc2-3)no1` [Compound 188], the activation at 0.1 µM was in the range of 20 to 50%. As for `CC(C)c1nc(-c2ncn3c2Cn2c(COc4ccc(F)cc4)nnc2-c2cc(F)ccc2-3)no1` [Compound 189], the activation at 0.1 µM fell in the range of 20 to 50%. `Cc1cccc(C)c1OCc1nnc2n1Cc1c(-c3noc(C(C)C)n3)ncn1-c1ccc(F)cc1-2` [Compound 190]: the activation at 0.1 µM was 5 to 20%. In the case of `COc1ccc2c(c1)-c1nnc(COc3ccc(F)cc3)n1Cc1c(C#N)ncn1-2` [Compound 191] it was 20 to 50%. Next, `CCc1nc(-c2ncn3c2Cc2c(Cc4ccccc4)nnn2-c2cc(OC)ccc2-3)no1` [Compound 194]: greater than 50%.

Take `CCc1nc(-c2ncn3c2Cc2c(Cc4ccc(F)cc4)nnn2-c2cc(OC)ccc2-3)no1` [Compound 195]: the activation at 0.1 µM lay within 20 to 50%. Next, `COc1ccc2c(c1)-c1nnc(COc3cccc(F)c3)n1Cc1c(C#N)ncn1-2` [Compound 196]: 20 to 50%. Turning to `COCc1nnc2n1Cc1c(-c3nc(C)no3)ncn1-c1ccc(Cl)cc1-2` [Compound 198], the activation at 0.1 µM is 20 to 50%. On to `FC(F)=Cc1ncn2c1Cn1c(COc3ccccc3)nnc1-c1cc(Cl)ccc1-2` [Compound 199], for which the activation at 0.1 µM was 20 to 50%.

As to `FC(F)c1ncn2c1Cn1c(COc3ccccc3)nnc1-c1cc(Cl)ccc1-2` [Compound 200], the activation at 0.1 µM was 5 to 20%. In the case of `Clc1ccc2c(c1)-c1nnc(COc3ccccc3)n1Cc1c(Br)ncn1-2` [Compound 202] it was 20 to 50%. In the case of `COc1ccc2c(c1)-c1nnc(COCc3cccnc3)n1Cc1c(-c3noc(C(C)C)n3)ncn1-2` [Compound 203] it was 20 to 50%; in that of `C#Cc1ncn2c1Cn1c(COc3ccccc3)nnc1-c1cc(Cl)ccc1-2` [Compound 205], 20 to 50%. In the case of `COCc1nnc2n1Cc1c(-c3nc(C(C)C)no3)ncn1-c1ccc(Cl)cc1-2` [Compound 206] it was 5 to 20%; in that of `COc1ccc2c(c1)-n1nnc(Cc3ccccc3)c1Cc1c(C#N)ncn1-2` [Compound 207], 20 to 50%. On to `COc1ccc2c(c1)-n1nnc(Cc3cccnc3)c1Cc1c(C#N)ncn1-2` [Compound 210], for which the activation at 0.1 µM is 20 to 50%. In the case of `COc1ccc2c(c1)-n1nnc(C)c1Cc1c(Br)ncn1-2` [Compound 211] it was 5 to 20%; in that of `COc1ccc2c(c1)-n1nnc(Cc3ccccc3)c1Cc1c(Br)ncn1-2` [Compound 212], 20 to 50%.

For the compound `COc1ccc2c(c1)-n1nnc(Cc3ccc(F)cc3)c1Cc1c(Br)ncn1-2` [Compound 213], the activation at 0.1 µM is 20 to 50%. In the case of `CCOCc1ncn2c1Cn1c(COC)nnc1-c1cc(Cl)ccc1-2` [Compound 215] it was 5 to 20%; in that of `COCc1nnc2n1Cc1c(Br)ncn1-c1ccc(Cl)cc1-2` [Compound 217], 5 to 20%.

As for `COc1ccc2c(c1)-n1nnc(COc3ccc(F)cc3)c1Cc1c(C#N)ncn1-2` [Compound 222], the activation at 0.1 µM fell in the range of 20 to 50%. In the case of `COc1ccc2c(c1)-n1nnc(COc3ccccc3F)c1Cc1c(C#N)ncn1-2` [Compound 223] it was 5 to 20%; in that of `COc1ccc2c(c1)-n1nnc(COc3ccccc3)c1Cc1c(C#N)ncn1-2` [Compound 224], 20 to 50%. For the compound `COc1ccc2c(c1)-n1nnc(COc3cccc(Br)c3)c1Cc1c(C#N)ncn1-2` [Compound 225], the activation at 0.1 µM fell in the range of 20 to 50%.

Regarding `N#Cc1ncn2c1Cc1c(COc3ccccc3)nnn1-c1cc(Cl)ccc1-2` [Compound 226], the activation at 0.1 µM is 20 to 50%. In the case of `N#Cc1ncn2c1Cc1c(COc3cccc(F)c3)nnn1-c1cc(Cl)ccc1-2` [Compound 227] it was 5 to 20%.

As for `Fc1ccc2c(c1)-n1cnc(Br)c1Cc1c(Cc3ccccc3)nnn1-2` [Compound 229], the activation at 0.1 µM was 5 to 20%.

As to `COc1ccc2c(c1)-c1nnc(COc3ccccc3)n1Cc1c(Br)ncn1-2` [Compound 232], the activation at 0.1 µM lay within 5 to 20%.

As to `COCc1nnc2n1Cc1c(-c3cc(C)no3)ncn1-c1ccc(Cl)cc1-2` [Compound 233], the activation at 0.1 µM lay in the range of 5 to 20%.

As to `C#Cc1ncn2c1Cn1c(COc3ccccc3)nnc1-c1cc(OC)ccc1-2` [Compound 236], the activation at 0.1 µM lay in the range of 5 to 20%.

As for `COCc1nnc2n1Cc1c(C3=NCCO3)ncn1-c1ccc(Cl)cc1-2` [Compound 238], the activation at 0.1 µM lay in the range of 20 to 50%. In the case of `C#Cc1ncn2c1Cn1c(COc3cccnc3)nnc1-c1cc(OC)ccc1-2` [Compound 241] it was 5 to 20%. Next, `COCc1nnc2n1Cc1c(C3=NC(c4ccccc4)CO3)ncn1-c1ccc(Cl)cc1-2` (centres unmarked) [Compound 242]: 5 to 20%; `COCc1nnc2n1Cc1c(C3=NC(C)CO3)ncn1-c1ccc(Cl)cc1-2` (centres unmarked) [Compound 243]: 20 to 50%; `COCc1nnc2n1Cc1c(-c3nc(C)co3)ncn1-c1ccc(Cl)cc1-2` [Compound 244]: 5 to 20%. Next, `COCc1nnc2n1Cc1c(-c3nc(-c4ccccc4)co3)ncn1-c1ccc(Cl)cc1-2` [Compound 245]: 5 to 20%. Turning to `COCc1nnc2n1Cc1c(-c3ncco3)ncn1-c1ccc(Cl)cc1-2` [Compound 249], the activation at 0.1 µM fell in the range of 20 to 50%. In the case of `COCc1nnc2n1Cc1c(C3=N[C@@H](c4ccccc4)CO3)ncn1-c1ccc(Cl)cc1-2` [Compound 264] it was 20 to 50%; in that of `CC(C)OCc1nnc2n1Cc1c(C3=N[C@H](c4ccccc4)CO3)ncn1-c1ccc(Cl)cc1-2` [Compound 268], 5 to 20%.

As for `CCOCc1nnc2n1Cc1c(C3=N[C@H](c4ccccc4)CO3)ncn1-c1ccc(Cl)cc1-2` [Compound 271], the activation at 0.1 µM is greater than 50%.

Regarding `COCc1nnc2n1Cc1c(C#Cc3ccccc3)ncn1-c1ccc(Cl)cc1-2` [Compound 285], the activation at 0.1 µM was 5 to 20%. Next, `COc1ccc2c(c1)-n1nncc1Cc1c(C3=N[C@H](c4ccccc4)CO3)ncn1-2` [Compound 290]: 20 to 50%; `COCc1nnc2n1Cc1c(C#Cc3ccccc3C)ncn1-c1ccc(Cl)cc1-2` [Compound 293]: 20 to 50%; `C#Cc1ccc2c(c1)-c1nnc(COC)n1Cc1c(C3=N[C@@H](c4ccccc4)CO3)ncn1-2` [Compound 301]: 5 to 20%.

(Values after patent US12528819B2 (priority 2016, dated 2026).)
